Data as given in patent publication US8952177B2 (Janssen Pharmaceutica NV, priority 2013, dated 2015).
Structures can show the parent of a compound that is named as a salt.

How the values were obtained:
human FLAP = human FLAP (Homo sapiens (Human), UniProt P20292); test: FLAP binding assay (HTRF format); settings: human FLAP-containing Sf-9 membranes, 25 nM HTRF ligand, 2 h; average of runs; read-out: FLAP Binding wild type HTRF Ki
Procedure: The ability of the compounds of the present invention to treat a FLAP-mediated disease and/or disorder, or associated symptoms or complications thereof, was determined using the following procedures. Binding assay data represent the average value obtained from two different assay plates, with samples run in duplicate on each plate. Human whole blood assay data represent a single replicate on an assay plate using whole blood from at least one healthy donor.
The assay below is used to test the modulatory activity of compounds against FLAP. Human and mouse FLAP-encoding DNA was amplified by polymerase chain reaction and cloned into pFastBacl (Invitrogen) with a NH2-terminal 6-His tag for expression in Spodoptera frugiperda (Sf-9) cells. FLAP-containing membranes were prepared as was a FITC-labeled FLAP modulator (3-(3-(tert-butylthio)-1-(4-chlorobenzyl)-5-(quinolin-2-ylmethoxy)-1H-indol-2-yl)-2,2-dimethylpropanoic acid). The FLAP binding assay is performed in HTRF format (homogeneous time resolved fluorescence). […] The reaction is allowed to proceed for two hours after which the plate is read on an Envision plate reader in HTRF mode. Data are expressed as a HTRF ratio.
For human FLAP binding assays, data are analyzed with 3DX Explorer software. […] For analysis, data from multiple runs are averaged and each compound may be tested in 2 to 20 runs. Each run comprises two plates and each plate includes duplicates. Data from each plate is averaged and data are imported into 3DX. The data from multiple runs are aggregated as the average of duplicates of the calculated ratios in order to calculate Ki and IC50 values. Numbers in parentheses are the number of runs for the assay.

[1] = test system: leukotriene pathway in human whole blood (LTB4); test: Human whole blood assay (LTB4 after calcium ionophore A23187 stimulation); format: cell-based; settings: human whole blood diluted 1:1 in RPMI, 15 min pre-incubation, A23187 7 μg/mL for 30 min at 37° Celsius
Procedure, shortened: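 Heparinised human whole blood, diluted 1:1 in RPMI, was preincubated with compound for 15 min at 37° C. before stimulation with A23187 (7 μg/mL) for 30 min. Plasma LTB4 was measured by immunoassay kit and IC50 obtained by 4-parameter fit; single replicate per plate, blood from at least one donor.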

Chain of human FLAP (P20292 whole entry): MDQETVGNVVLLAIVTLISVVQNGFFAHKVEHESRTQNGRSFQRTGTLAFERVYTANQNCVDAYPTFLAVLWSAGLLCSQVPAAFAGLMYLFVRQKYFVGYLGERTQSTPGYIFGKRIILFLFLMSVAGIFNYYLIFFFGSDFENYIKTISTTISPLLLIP

| SMILES | Ki (human FLAP) | IC50 ([1]; Homo sapiens) | IC50 [1] |
| --- | --- | --- | --- |
| CCC(CC)(Cc1nc2ccc(OCc3ccc(C)cn3)cc2n1Cc1cccc(-c2ccc(C(F)(F)F)cc2)c1)C(=O)O [Example 149, 2-ethyl-2-((6-((5-methylpyridin-2-yl)methoxy)-1-((4′-(trifluoromethyl)-[1,1′-biphenyl]-3-yl)methyl)-1H-benzo[d]imidazol-2-yl)methyl)butanoic acid] | 36 nM | 3880 nM |  |
| CCC(CC)(Cc1nc2c(F)cc(OCc3ccc(C)cn3)cc2n1Cc1ccc(Br)cc1)C(=O)O [Example 65, 2-({1-(4-Bromobenzyl)-4-fluoro-6-[(5-methylpyridin-2-yl)methoxy]-1H-benzimidazol-2-yl}methyl)-2-ethylbutanoic acid as the TFA salt] | 6 nM | 1120 nM |  |
| Cc1cnc(COc2ccc3nc([C@@H]4CCCC[C@@H]4C(=O)O)n(Cc4ccc(N5CCC(C)CC5)cc4)c3c2)c(F)c1 (racemic) [Example 178, racemic cis-2-{6-[(3-Fluoro-5-methylpyridin-2-yl)methoxy]-1-[4-(4-methylpiperidin-1-yl)benzyl]-1H-benzimidazol-2-yl}cyclohexanecarboxylic acid] | 1.2 nM | 47 nM |  |
| Cn1ccc(COc2cc(F)c3nc(C4CCCC[C@@H]4C(=O)O)n(Cc4ccc(N5CC(F)(F)C5)cc4)c3c2)n1 (mixture of isomers) [Example 168, racemic cis-2-{1-[4-(3,3-Difluoroazetidin-1-yl)benzyl]-4-fluoro-6-[(1-methyl-1H-pyrazol-3-yl)methoxy]-1H-benzimidazol-2-yl}cyclohexanecarboxylic acid as the formate salt] | 7.8 nM |  | 3570 nM |
| CCC(CC)(Cc1nc2ccc(OCc3ccn(C)n3)cc2n1Cc1ccc(N2CCCCC2)cc1)C(=O)O [Example 43, 2-Ethyl-2-({6-[(1-methyl-1H-pyrazol-3-yl)methoxy]-1-(4-piperidin-1-ylbenzyl)-1H-benzimidazol-2-yl}methyl)butanoic acid] | ~940 nM |  |  |
| Cc1cc(Cn2c([C@@H]3CCCC[C@@H]3C(=O)O)nc3ccc(OCc4ccn(C)n4)cc32)ccc1OC(F)(F)F (racemic) [Example 106, racemic cis-2-{6-[(1-Methyl-1H-pyrazol-3-yl)methoxy]-1-[3-methyl-4-(trifluoromethoxy)benzyl]-1H-benzimidazol-2-yl}cyclohexanecarboxylic acid as the HCl salt] | 5.4 nM | 1160 nM |  |
| Cn1ccc(COc2ccc3nc([C@@H]4[C@H](C(=O)O)C4(C)C)n(Cc4ccc(Br)cc4)c3c2)n1 (racemic) [Example 134, racemic cis-3-{1-(4-Bromobenzyl)-6-[(1-methyl-1H-pyrazol-3-yl)methoxy]-1H-benzimidazol-2-yl}-2,2-dimethylcyclopropanecarboxylic acid] | ~500 nM | 860 nM |  |
| Cn1ccc(COc2ccc3nc([C@@H]4CCCC[C@@H]4C(=O)O)n(Cc4ccc(OC(F)(F)F)cc4F)c3c2)n1 (stereo in doubt) [Example 52, (1S*,2R*)-2-{1-[2-Fluoro-4-(trifluoromethoxy)benzyl]-6-[(1-methyl-1H-pyrazol-3-yl)methoxy]-1H-benzimidazol-2-yl}cyclohexanecarboxylic acid] | > 10000 nM | > 10000 nM |  |
| Cc1ccc(COc2cc(F)c3nc(CC4(C(=O)O)CCCC4)n(Cc4ccc(Br)cc4)c3c2)nc1 [Example 61, 1-({1-(4-Bromobenzyl)-4-fluoro-6-[(5-methylpyridin-2-yl)methoxy]-1H-benzimidazol-2-yl}methyl)cyclopentanecarboxylic acid] | 6 nM | 2280 nM |  |
| Cn1cc(Cl)c(COc2ccc3nc([C@@H]4CCCC[C@@H]4C(=O)O)n(Cc4ccc(OC(F)(F)F)cc4F)c3c2)n1 (racemic) [Example 83, racemic cis-2-{6-[(4-Chloro-1-methyl-1H-pyrazol-3-yl)methoxy]-1-[2-fluoro-4-(trifluoromethoxy)benzyl]-1H-benzimidazol-2-yl}cyclohexanecarboxylic acid] | 4.2 nM | 350 nM |  |
| Cn1ccc(COc2ccc3nc([C@@H]4[C@@H](C(=O)O)C4(C)C)n(Cc4ccc(Br)cc4)c3c2)n1 (racemic) [Example 117, racemic trans-3-{1-(4-Bromobenzyl)-6-[(1-methyl-1H-pyrazol-3-yl)methoxy]-1H-benzimidazol-2-yl}-2,2-dimethylcyclopropanecarboxylic acid as the TFA salt] | ~1880 nM |  |  |
| Cn1ccc(COc2ccc3nc(C4CCCC[C@@H]4C(=O)O)n(Cc4ccc(C#N)cc4)c3c2)n1 (mixture of isomers) [Example 48, racemic trans-2-{1-(4-Cyanobenzyl)-6-[(1-methyl-1H-pyrazol-3-yl)methoxy]-1H-benzimidazol-2-yl}cyclohexanecarboxylic acid as the TFA salt] | ~750 nM |  |  |
| Cn1ccc(COc2ccc3nc(CC(C)(C)C(=O)O)n(Cc4ccc(Br)cc4)c3c2)n1 [Example 107, 3-{1-(4-Bromobenzyl)-6-[(1-methyl-1H-pyrazol-3-yl)methoxy]-1H-benzimidazol-2-yl}-2,2-dimethylpropanoic acid] | 430 nM |  |  |
| Cc1ccc(COc2ccc3nc([C@@H]4CCCC[C@@H]4C(=O)O)n(Cc4ccc(C#N)cc4)c3c2)nc1 (stereo in doubt) [Example 38, (1S*,2R*)-2-{1-(4-Cyanobenzyl)-6-[(5-methylpyridin-2-yl)methoxy]-1H-benzimidazol-2-yl}cyclohexanecarboxylic acid] | > 10000 nM |  |  |
| CCC(CC)(Cc1nc2ccc(OCc3ccc(C)cn3)cc2n1Cc1ccc(C#N)cc1)C(=O)O [Example 19, 2-({1-(4-Cyanobenzyl)-6-[(5-methylpyridin-2-yl)methoxy]-1H-benzimidazol-2-yl}methyl)-2-ethylbutanoic acid as the TFA salt] | ~750 nM |  |  |
| Cc1cccc(COc2ccc3nc(CC(C)(C)C(=O)O)n(Cc4ccc(Br)cc4)c3c2)n1 [Example 108, 3-{1-(4-Bromobenzyl)-6-[(6-methylpyridin-2-yl)methoxy]-1H-benzimidazol-2-yl}-2,2-dimethylpropanoic acid] | 2240 nM |  |  |
| Cc1ccc(COc2cc3c(cc2Cl)nc([C@H]2CCCC[C@H]2C(=O)O)n3Cc2ccc(OC(F)(F)F)cc2F)nc1 (racemic) [Example 110, racemic cis-2-{5-Chloro-1-[2-fluoro-4-(trifluoromethoxy)benzyl]-6-[(5-methylpyridin-2-yl)methoxy]-1H-benzimidazol-2-yl}cyclohexanecarboxylic acid as the HCl salt] | 920 nM |  |  |
| CCC(CC)(Cc1nc2ccc(OCc3ccn(C)n3)cc2n1Cc1ccc(OC(F)(F)F)cc1)C(=O)O [Example 50, 2-Ethyl-2-({6-[(1-methyl-1H-pyrazol-3-yl)methoxy]-1-[4-(trifluoromethoxy)benzyl]-1H-benzimidazol-2-yl}methyl)butanoic acid] | ~100 nM |  |  |
| Cc1cccc(COc2ccc3nc([C@@H]4[C@H](C(=O)O)C4(C)C)n(Cc4ccc(Br)cc4)c3c2)n1 (racemic) [Example 133, racemic cis-3-{1-(4-Bromobenzyl)-6-[(6-methylpyridin-2-yl)methoxy]-1H-benzimidazol-2-yl}-2,2-dimethylcyclopropanecarboxylic acid] | ~1500 nM |  |  |
| Cn1ccc(COc2ccc3nc([C@@H]4CCCC[C@@H]4C(=O)O)n(Cc4ccc(C#N)cc4)c3c2)n1 (racemic) [Example 47, racemic cis-2-{1-(4-Cyanobenzyl)-6-[(1-methyl-1H-pyrazol-3-yl)methoxy]-1H-benzimidazol-2-yl}cyclohexanecarboxylic acid as the TFA salt] | ~490 nM |  |  |
